The values that follow come from patent US6303785A, “Compounds having activity as inhibitors of cytochrome P450RAI” (Allergan Sales, Inc., priority 2000, dated 2001).

Structures are written as SMILES. Some results are limits rather than exact numbers.

One data set concerns human skin. The settings on record: known; cited from earlier work.
In the next data set the test system is skin of hairless mice. Briefly: Topical Skin Irritation Test (cutaneous toxicity / Blackjack score). The conditions noted are these: topical once daily days 1-5, mean±SD, range 0-21. The format is in vivo, hairless mouse (Cr1:SKH1-hrBR). From the text: Mice were housed individually throughout the dosing period.
Doses are disclosed as nmol/25 g.
The grading scale used is as follows:
Values can range from 0-9.
Values can range from 0-8.

For data set [1], the system named is RARβ. Briefly: chimeric receptor transactivation assay, RARβ. The data set is classed as cell-based. The settings on record: read-out: RAR EC50 β. From the text:
(§1) Assays described below measure the ability of a compound to bind to, and/or activate various retinoid receptor subtypes. When in these assays a compound binds to a given receptor subtype and activates the transcription of a reporter gene through that subtype, then the compound is considered an agonist of that receptor subtype. […] In the below described assays the ability of the compounds to bind to RARα, […], RARγ, […] and RXRγ receptors, and the ability or inability of the compounds to activate transcription of a reporter gene through these receptor subtypes can be tested.
(§2) The results obtained in this assay are expressed in EC50 numbers, as they are also in the chimeric receptor transactivation assay. The results of ligand binding assay are expressed in Kd numbers.

A further data set deals with RARγ. Briefly: chimeric receptor transactivation assay, RARγ. The format is cell-based. The conditions noted are these: read-out: RAR EC50 γ.
Text: as §1, §2

Data set [2] has as its target T1, RARβ (Homo sapiens, UniProt P10826).
T1 sequence (P10826 1-455): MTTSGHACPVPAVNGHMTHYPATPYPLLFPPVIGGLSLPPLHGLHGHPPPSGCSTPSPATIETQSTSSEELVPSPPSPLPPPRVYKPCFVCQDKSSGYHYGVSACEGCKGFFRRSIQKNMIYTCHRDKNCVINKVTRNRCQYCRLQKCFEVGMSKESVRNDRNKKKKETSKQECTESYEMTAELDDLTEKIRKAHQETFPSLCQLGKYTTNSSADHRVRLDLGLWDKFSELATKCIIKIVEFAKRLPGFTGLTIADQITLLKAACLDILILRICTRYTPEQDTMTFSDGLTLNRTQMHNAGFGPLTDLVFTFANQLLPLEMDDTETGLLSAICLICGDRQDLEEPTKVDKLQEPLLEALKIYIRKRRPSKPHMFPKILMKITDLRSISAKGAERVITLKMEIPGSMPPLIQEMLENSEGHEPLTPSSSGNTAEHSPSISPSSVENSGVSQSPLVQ
Briefly: ligand binding assay, RARβ. The conditions noted are these: read-out: RAR Kd β.
Text: as §1, §2

The next data set relates to psoriasis. The settings on record: prior art; cited from earlier work.

Take `CC1=C(/C=C/C(C)=C/C=C/C(C)=C\C(=O)O)C(C)(C)CCC1` [13-cis RA]: the “skin irritation in humans (in words)” value in the data set with human skin was “substantial skin irritation”.

`CC1=C(/C=C/C(C)=C/C=C/C(C)=C/C(=O)O)C(C)(C)CCC1` [ATRA, all-trans-retinoic acid]: the “skin irritation in humans (in words)” value in the data set on human skin was “substantial skin irritation”.

With `CC1(C)CCC(=O)c2ccc(C#Cc3ccc(CC(=O)O)cc3)cc21` [Compound 5, 4-[(8,8-Dimethyl1-5-oxo-5,6,7,8-tetrahydro-naphthalene-2-yl-ethynyl)-phenyl]-acetic acid], the “Cutaneous Toxicity Score (Blackjack Score)” value (“Cutaneous Toxicity Score” below) in the data set with skin of hairless mice (100 nmole (per 25 g)) stood at 0; with skin of hairless mice (1000 nmole (per 25 g)) it was 6 ± 3.

For `CN(C1CC1)C1CCC(C)(C)c2cc(C#Cc3ccc(CC(=O)O)cc3)ccc21` (centres unmarked) [Compound 8, 4-[(5-(Cyclopropyl-methyl-amino)-8,8-dimethyl-5,6,7,8-tetrahydro-naphthalene-2-yl-ethynyl)-phenyl]-acetic acid], the “Cutaneous Toxicity Score” value with skin of hairless mice (100 nmole (per 25 g)) worked out at 5 ± 2; in the data set with skin of hairless mice (300 nmole (per 25 g)), 8 ± 3; in the data set on skin of hairless mice (1000 nmole (per 25 g)) it was 12 ± 1.

With `CC1(C)CCC(=O)c2ccc(C#Cc3ccc(C(=O)O)c(F)c3)cc21` [Compound 10, 2-Fluoro-4(8,8dimethyl-5-oxo-5,6,7,8-tetrahydro-naththalen-2yl-ethynyl)benzoic acid], the EC50 (in general, the concentration needed to bring the measured effect to its halfway point) with RARβ [1] was 0.3 nM; with RARγ, 6 nM.

For the compound `CC1(C)CCC(=O)c2ccc(C#Cc3ccc(CC(=O)O)c(F)c3)cc21` [Compound 15, [2-Fluoro-4-(8,8-dimethyl-5-oxo-5,6,7,8-tetrahydro-naphthalene-2-yl-ethynl)phenyl]-acetic acid], the “Cutaneous Toxicity Score” value with skin of hairless mice (100 nmole (per 25 g)) is given as 1 ± 1; in the data set with skin of hairless mice (1000 nmole (per 25 g)) it was 5 ± 2.

Turning to `CN(C1CC1)C1CCC(C)(C)c2cc(C#Cc3ccc(CC(=O)O)c(F)c3)ccc21` (centres unmarked) [Compound 18, [4-(5-(Cyclopropyl-methyl-amino)-8,8-dimethyl-5,6,7,8-tetrahydro-naphthalene-2-yl-ethynyl)-2-fluoro-phenyl]-acetic acid], the entries for the “Cutaneous Toxicity Score” value in the data set on skin of hairless mice (100 nmole (per 25 g)), in the data set on skin of hairless mice (300 nmole (per 25 g)) and with skin of hairless mice (1000 nmole (per 25 g)) were 0 ± 0, 5 ± 2 and 10 ± 2, respectively.

In the case of `CC1(C)CN(C2CC2)Cc2ccc(C#Cc3ccc(CC(=O)O)c(F)c3)cc21` [Compound 22, [4-(2-Cyclopropyl-4,4-dimethyl-1 2,3,4-tetrahydro-isoquinolin-6-yl-ethynyl)-2-fluoro-phenyl]-acetic acid], the figures for the “Cutaneous Toxicity Score” value in the data set with skin of hairless mice (100 nmole (per 25 g)), in the data set with skin of hairless mice (300 nmole (per 25 g)) and with skin of hairless mice (1000 nmole (per 25 g)) were 0 ± 0, 0 ± 0 and 1 ± 1, respectively.

For the compound `CC1(C)CC(C)(C)c2cc(C#Cc3ccc(CC(=O)O)cc3)cc(C3CC3)c2O1` [Compound 36, [4-(8-Cyclopropyl-2,2,4,4-tetramethyl-chroman-6-yl-ethynyl)phenyl]acetic acid], the “Cutaneous Toxicity Score” value in the data set on skin of hairless mice (100 nmole (per 25 g)) is given as 1 ± 1; with skin of hairless mice (1000 nmole (per 25 g)), 11 ± 0.

Consider `CC1(C)CC(C)(C)c2cc(C#Cc3ccc(CC(=O)O)c(F)c3)cc(C3CC3)c2O1` [Compound 38, [4(8-Cyclopropyl-2,2,4,4tetramethyl-chroman-6-yl-ethynyl)-2-fluoro-phenyl]acetic acid], for which the results for the “Cutaneous Toxicity Score” value in the data set on skin of hairless mice (100 nmole (per 25 g)) and in the data set on skin of hairless mice (1000 nmole (per 25 g)) were 1 ± 1 and 10 ± 1, respectively.

As to `CC1(C)CC2(CC2)Oc2c(C3CC3)cc(C#Cc3ccc(CC(=O)O)cc3)cc21` [Compound 48, Benzeneacetic acid, 4-[(8-cyclopropyl-3,4-dihydro-4,4-dimethylspiro[2H 1-benzopyran-2.1'-cyclopropane]-6-yl)ethanyl]-], the “Cutaneous Toxicity Score” value in the data set with skin of hairless mice (100 nmole (per 25 g)) is 1 ± 1; in the data set with skin of hairless mice (300 nmole (per 25 g)) it was 3 ± 1; in the data set with skin of hairless mice (1000 nmole (per 25 g)) it was 7 ± 2.

As for `CC1(C)CC2(CC2)Oc2c(C3CC3)cc(C#Cc3ccc(CC(=O)O)c(F)c3)cc21` [Compound 50, 4-[(8-Cyclopropyl-3,4-dihydro-4,4-dimethylspiro[2H-1-benzopyran-2,1'-cyclopropane]-6-yl)ethynyl]-2-fluoro-benzeneacetic acid], the “Cutaneous Toxicity Score” value in the data set on skin of hairless mice (100 nmole (per 25 g)) is given as 1 ± 0; with skin of hairless mice (300 nmole (per 25 g)), 3 ± 2; in the data set with skin of hairless mice (1000 nmole (per 25 g)), 8 ± 2.

In the case of `CC1(C)CC2(CC2)Oc2c(C3CC3)cc(C(=O)Oc3ccc(CC(=O)O)cc3)cc21` [Compound 58, Spiro[2H-1-benzopyran-2,1'-cyclopropane]-6-carboxylic acid, 8-cyclopropyl-3,4-dihydro-4,4-dimethyl-, 4-(carboxymethyl)phenyl ester], the “Cutaneous Toxicity Score” value with skin of hairless mice (100 nmole (per 25 g)), in the data set with skin of hairless mice (300 nmole (per 25 g)) and with skin of hairless mice (1000 nmole (per 25 g)) was 0 ± 0 each time.

With `CCc1cc(C#Cc2ccc(C(=O)O)cc2)ccc1C1(OCc2ccccc2)CC1` [Compound 93, 4-[4-(1-Benzyloxycyclopropyl)-3-ethyl-phenylethynyl]-benzoic acid], the EC50 with RARβ [1] is 20 nM; in the data set with RARγ it was 10 nM.

On to `O=C(O)c1ccc(C#Cc2ccc(C3(N(Cc4ccccc4)Cc4ccccc4)CC3)cc2)cc1` [Compound 114], for which the dissociation constant Kd (in general, the constant that tells how readily two partners part at equilibrium) at RARβ [2] was over 10 nM.

Turning to `CC1(C)CCC(n2ccnc2)c2ccc(C#Cc3ccc(CC(=O)O)cc3)cc21` (centres unmarked) [Compound 137, [4-(5-Imidazol-1-yl-8,8-dimethyl-5,6,7,8-tetrahydro-naphthalen-2-yl-ethynyl)-phenyl]-acetic acid], the “Cutaneous Toxicity Score” value amounted to 1 ± 1 in the data set with skin of hairless mice (100 nmole (per 25 g)), 1 ± 1 with skin of hairless mice (300 nmole (per 25 g)) and 5 ± 2 with skin of hairless mice (1000 nmole (per 25 g)).

Regarding `CCOC(=O)/C=C(C)/C=C/C=C(C)/C=C/c1c(C)cc(OC)c(C)c1C` [etretinate], in the data set on human skin, the “skin irritation in humans (in words)” value is on record as “substantial skin irritation”.

In the case of `Clc1cccc(C(c2ccc3[nH]cnc3c2)n2ccnc2)c1` (centres unmarked) [liarozole], the “retinoid-like effect of treatment (in words)” value in the data set with psoriasis is “amelioration of psoriasis”.
